Measured values as given in US20080306038A1, “Compositions and Methods for Modulating Inflammation Using Fluoroquinolones” (priority 2007, published 2008).

Columns and labels:
Format in all cases: cell-based, human
IL-8 = experiment: LPS-stimulated IL-8 production in THP-1 monocytes (multiplex Luminex); design: key to Inhibition of LPS-stimulated IL-8 production: “X” signifies significant inhibition at a particular concentration
Protocol: (§1) Human THP-1 monocytes (ATCC TIB 202) were purchased from American Type Culture Collection (Manassas, Va.) and maintained in RPMI 1640 medium (Invitrogen, Carlsbad, Calif.) supplemented with 10% fetal bovine serum (“FBS”, Invitrogen, Carlsbad, Calif.), 100 U/mL of penicillin (Invitrogen, Carlsbad, Calif.), and 100 μg/mL of streptomycin (Invitrogen, Carlsbad, Calif.) at 37° C. in a humidified incubator with 5% CO2. THP-1 cells were pre-cultured in RPMI 1640 medium containing 10% dialyzed serum for 24 h. […] Each treatment was performed in triplicate.
(§2) Samples were analyzed using multiplex bead technology, which utilizes microspheres as the solid support for immunoassays and allows the analysis of all cytokines from each sample (D. A. Vignali, J. Immunol. Methods, Vol. 243, 243-255 (2000)). Sixteen cytokines were measured according to the manufacturer's instructions. Briefly, 50 μL of medium samples were incubated with antibody-coated capture beads overnight at 4° C. Washed beads were further incubated with biotin-labelled anti-human cytokine antibodies for 2 h at room temperature followed by incubation with streptavidin-phycoerythrin for 30 min. Samples were analyzed using Luminex 200™ (Luminex, Austin, Tex.) and Beadview software v1.0 (Upstate Cell Signaling Solutions, Temecula, Calif.). Standard curves of known concentrations of recombinant human cytokines were used to convert fluorescence units (median fluorescence intensity) to cytokine concentration in pg/mL. Only the linear portions of the standard curves were used to quantify cytokine concentrations, and in instances where the fluorescence reading exceeded the linear range of the standard curve, an appropriate dilution was performed to ensure that the concentration was in the linear portion of the curve.
(§3) All cytokine concentrations (pg/mL) were expressed as mean ±standard deviation. Statistical analysis comparing effects of treatment across groups was performed using a one-way ANOVA with a Dunnett's post-hoc comparison test using either vehicle control or LPS treatment as references. For all assays, p≦0.05 was predetermined as the criterion of statistical significance.

IP-10 = experiment: LPS-stimulated IP-10 production in THP-1 monocytes (multiplex Luminex); design: key to Inhibition of LPS-stimulated IP-10 production: “X” signifies significant inhibition at a particular concentration
Protocol: as §1, §2, §3

IL-6 = experiment: LPS-stimulated IL-6 production in THP-1 monocytes (multiplex Luminex); design: key to Inhibition of LPS-stimulated IL-6 production: “X” signifies significant inhibition at a particular concentration
Protocol: as §1, §2, §3

IL-1α = experiment: LPS-stimulated IL-1α production in THP-1 monocytes (multiplex Luminex); design: key to Inhibition of LPS-stimulated IL-1α production: “X” signifies significant inhibition at a particular concentration
Protocol: as §1, §2, §3

GM-CSF = experiment: LPS-stimulated GM-CSF production in THP-1 monocytes (multiplex Luminex); design: key to Inhibition of LPS-stimulated GM-CSF production: “X” signifies significant inhibition at a particular concentration
Protocol: as §1, §2
(§4) All cytokine concentrations (pg/mL) were expressed as mean ±standard deviation. Statistical analysis comparing effects of treatment across groups was performed using a one-way ANOVA with a Dunnett's post-hoc comparison test using either vehicle control or LPS treatment as references. […]

RANTES = experiment: LPS-stimulated RANTES production in THP-1 monocytes (multiplex Luminex); settings: 0.1-30 μg/mL, 18 hours
Protocol: as §1
(§5) Samples were analyzed using multiplex bead technology, which utilizes microspheres as the solid support for immunoassays and allows the analysis of all cytokines from each sample (D. A. Vignali, J. Immunol. Methods, Vol. 243, 243-255 (2000)). Sixteen cytokines were measured according to the manufacturer's instructions. Briefly, 50 μL of medium samples were incubated with antibody-coated capture beads overnight at 4° C. […] Samples were analyzed using Luminex 200™ (Luminex, Austin, Tex.) and Beadview software v1.0 (Upstate Cell Signaling Solutions, Temecula, Calif.). Standard curves of known concentrations of recombinant human cytokines were used to convert fluorescence units (median fluorescence intensity) to cytokine concentration in pg/mL. […]
(§6) All cytokine concentrations (pg/mL) were expressed as mean ±standard deviation. […]

MCP-1 = experiment: LPS-stimulated MCP-1 production in THP-1 monocytes (multiplex Luminex); design: key to Inhibition of LPS-stimulated MCP-1 production: “X” signifies significant inhibition at a particular concentration
Protocol: as §1, §2, §4

G-CSF = experiment: LPS-stimulated G-CSF production in THP-1 monocytes (multiplex Luminex); design: key to Inhibition of LPS-stimulated G-CSF production: “X” signifies significant inhibition at a particular concentration
Protocol: as §1, §2, §3

IL-1ra = experiment: LPS-stimulated IL-1ra production in THP-1 monocytes (multiplex Luminex); design: key to Inhibition of LPS-stimulated IL-1ra production: “X” signifies significant inhibition at a particular concentration; settings: for Inhibition of LPS-stimulated IL-1ra production: 18 hours
Protocol: as §1, §2, §3

IL-1β = experiment: LPS-stimulated IL-1β production in THP-1 monocytes (multiplex Luminex); design: key to Inhibition of LPS-stimulated IL-1β production: “X” signifies significant inhibition at a particular concentration
Protocol: as §1, §2, §3

IL-12p40 = experiment: LPS-stimulated IL-12p40 production in THP-1 monocytes (multiplex Luminex); design: key to Inhibition of LPS-stimulated IL-12p40 production: “X” signifies significant inhibition at a particular concentration; settings: 18 hours
Protocol: as §1, §2, §3

MIP-1α = experiment: LPS-stimulated MIP-1α production in THP-1 monocytes (multiplex Luminex); design: key to Inhibition of LPS-stimulated MIP-1α production: “X” signifies significant inhibition at a particular concentration
Protocol: as §1, §2, §3

VEGF = experiment: LPS-stimulated VEGF production in THP-1 monocytes (multiplex Luminex); design: key to Inhibition of LPS-stimulated VEGF production: “X” signifies significant inhibition at a particular concentration; settings: for Inhibition of LPS-stimulated VEGF production: 18 hours, THP-1 monocytes
Protocol: as §1, §2, §3

Fractalkine = experiment: LPS-stimulated fractalkine production in THP-1 monocytes (multiplex Luminex); settings: 0.1-30 μg/mL, 18 hours
Protocol: as §1, §5, §6

[1] = 30 μg/mL compound + 10 μg/mL LPS, 18 hours, THP-1 monocytes
[2] = LPS-induced, THP-1 monocytes, 18 hours
[3] = 1 μg/mL compound + 10 μg/mL LPS, 18 hours, THP-1 monocytes
[4] = 10 μg/mL compound + 10 μg/mL LPS, 18 hours, THP-1 monocytes
[5] = FIG. 2, LPS-stimulated THP-1 monocytes
[6] = 30 μg/mL compound + 10 μg/mL LPS

N[C@@H]1CCCCN(c2c(F)cc3c(=O)c(C(=O)O)cn(C4CC4)c3c2Cl)C1 [Compound Having Formula IV]
Inhibition of LPS-stimulated IL-8 production (IL-8; [1]): X | Comparison of moxifloxacin and compound having Formula IV, effect on IL-8 after LPS stimulation (IL-8; FIG. 1, THP-1 monocytes): comparable effects | Concentration at which a significant inhibitory effect was observed for IL-8 (IL-8; [2]): 30 µg/mL | Inhibition of LPS-stimulated IP-10 production (IP-10; [1]): X | Comparison of moxifloxacin and compound having Formula IV, effect on IP-10 after LPS stimulation (IP-10; FIG. 1, THP-1 monocytes): comparable effects | Concentration at which a significant inhibitory effect was observed for IP-10 (IP-10; [2]): 30 µg/mL | Inhibition of LPS-stimulated IL-6 production (IL-6; [3]): X | Inhibition of LPS-stimulated IL-6 production (IL-6; [4]): X | Inhibition of LPS-stimulated IL-6 production (IL-6; [1]): X | Relative potency of compound having Formula IV and moxifloxacin on IL-6 (IL-6; [5]): better potency than moxifloxacin | Concentration with significant inhibitory effect on IL-6 (IL-6; LPS-induced, THP-1 monocytes): 1000 ng/mL | Concentration at which a significant inhibitory effect was observed for IL-6 (IL-6; [2]): 1 µg/mL | Inhibition of LPS-stimulated IL-1α production (IL-1α; 0.1 μg/mL compound + 10 μg/mL LPS, 18 hours, THP-1 monocytes): X | Inhibition of LPS-stimulated IL-1α production (IL-1α; [3]): X | Inhibition of LPS-stimulated IL-1α production (IL-1α; [4]): X | Inhibition of LPS-stimulated IL-1α production (IL-1α; [1]): X | Relative potency of compound having Formula IV and moxifloxacin on IL-1α (IL-1α; [5]): better potency than moxifloxacin | Lowest concentration with significant inhibitory effect on IL-1α (IL-1α; LPS-induced, THP-1 monocytes): 100 ng/mL | Concentration at which a significant inhibitory effect was observed for IL-1α (IL-1α; [2]): 0.1 µg/mL | Inhibition of LPS-stimulated GM-CSF production (GM-CSF; [1]): X | Comparison of moxifloxacin and compound having Formula IV, effect on GM-CSF after LPS stimulation (GM-CSF; FIG. 1, THP-1 monocytes): comparable effects | Concentration at which a significant inhibitory effect was observed for GM-CSF (GM-CSF; [2]): 30 µg/mL | Effect on LPS-stimulated production of RANTES (RANTES): Neither moxifloxacin nor compound having Formula IV altered | Inhibition of LPS-stimulated MCP-1 production (MCP-1; [1]): X | Comparison of moxifloxacin and compound having Formula IV, effect on MCP-1 after LPS stimulation (MCP-1; FIG. 1, THP-1 monocytes): comparable effects | Concentration at which a significant inhibitory effect was observed for MCP-1 (MCP-1; [2]): 30 µg/mL | Inhibition of LPS-stimulated G-CSF production (G-CSF; [3]): X | Inhibition of LPS-stimulated G-CSF production (G-CSF; [4]): X | Inhibition of LPS-stimulated G-CSF production (G-CSF; [1]): X | Relative potency of compound having Formula IV and moxifloxacin on G-CSF (G-CSF; [5]): better potency than moxifloxacin | Concentration with significant inhibitory effect on G-CSF (G-CSF; LPS-induced, THP-1 monocytes): 1000 ng/mL | Concentration at which a significant inhibitory effect was observed for G-CSF (G-CSF; [2]): 1 µg/mL | Inhibition of LPS-stimulated IL-1ra production (IL-1ra; 1 μg/mL compound + 10 μg/mL LPS, THP-1 monocytes): X | Inhibition of LPS-stimulated IL-1ra production (IL-1ra; 10 μg/mL compound + 10 μg/mL LPS, THP-1 monocytes): X | Inhibition of LPS-stimulated IL-1ra production (IL-1ra; 30 μg/mL compound + 10 μg/mL LPS, THP-1 monocytes): X | Relative potency of compound having Formula IV and moxifloxacin on IL-1ra (IL-1ra; [5]): better potency than moxifloxacin | Concentration with significant inhibitory effect on IL-1ra (IL-1ra; LPS-induced, THP-1 monocytes): 1000 ng/mL | Inhibition of LPS-stimulated IL-1β production (IL-1β; [1]): X | Comparison of moxifloxacin and compound having Formula IV, effect on IL-1β after LPS stimulation (IL-1β; FIG. 1, THP-1 monocytes): comparable effects | Concentration at which a significant inhibitory effect was observed for IL-1β (IL-1β; [2]): 30 µg/mL | Inhibition of LPS-stimulated IL-12p40 production (IL-12p40; [6]): X | Concentration at which a significant inhibitory effect was observed for IL-12p40 (IL-12p40; LPS-induced): 30 µg/mL | Inhibition of LPS-stimulated MIP-1α production (MIP-1α; [1]): X | Comparison of moxifloxacin and compound having Formula IV, effect on MIP-1α after LPS stimulation (MIP-1α; FIG. 1, THP-1 monocytes): comparable effects | Concentration at which a significant inhibitory effect was observed for MIP-1α (MIP-1α; [2]): 30 µg/mL | Inhibition of LPS-stimulated VEGF production (VEGF; 10 μg/mL compound + 10 μg/mL LPS): X | Inhibition of LPS-stimulated VEGF production (VEGF; [6]): X | Relative potency of compound having Formula IV and moxifloxacin on VEGF (VEGF; [5]): better potency than moxifloxacin | Effect on LPS-stimulated production of fractalkine (Fractalkine): Neither moxifloxacin nor compound having Formula IV altered
